From ChEMBL document CHEMBL1129833, “N-Phthalimidoalkyl derivatives of 2-carbomethoxy-3-(4-iodophenyl)tropane (-CIT): Brain monoamine transporter affinity” (Bioorg Med Chem Lett, 1997)

Legend:
Format in all cases: tissue-based
[1] = biological target: Norepinephrine transporter (Rattus norvegicus, UniProt Q9WTR4); assay: In vitro binding affinity of compound for Norepinephrine (NE) transporter with [3H]- […] as radioligand in corpus striatum tissue from rat forebrain
[2] = biological target: Sodium-dependent serotonin transporter (Rattus norvegicus, UniProt P31652); assay: In vitro binding affinity of compound for Serotonin transporter with [3H]- paroxetine as radioligand in corpus striatum tissue from rat forebrain
[3] = biological target: Sodium-dependent dopamine transporter (Rattus norvegicus, UniProt P23977); assay: In vitro binding affinity of compound for Dopamine transporter with [3H]- GBR-12935 as radioligand in corpus striatum tissue from rat forebrain
Sodium-dependent dopamine transporter, sequence (P23977 whole entry): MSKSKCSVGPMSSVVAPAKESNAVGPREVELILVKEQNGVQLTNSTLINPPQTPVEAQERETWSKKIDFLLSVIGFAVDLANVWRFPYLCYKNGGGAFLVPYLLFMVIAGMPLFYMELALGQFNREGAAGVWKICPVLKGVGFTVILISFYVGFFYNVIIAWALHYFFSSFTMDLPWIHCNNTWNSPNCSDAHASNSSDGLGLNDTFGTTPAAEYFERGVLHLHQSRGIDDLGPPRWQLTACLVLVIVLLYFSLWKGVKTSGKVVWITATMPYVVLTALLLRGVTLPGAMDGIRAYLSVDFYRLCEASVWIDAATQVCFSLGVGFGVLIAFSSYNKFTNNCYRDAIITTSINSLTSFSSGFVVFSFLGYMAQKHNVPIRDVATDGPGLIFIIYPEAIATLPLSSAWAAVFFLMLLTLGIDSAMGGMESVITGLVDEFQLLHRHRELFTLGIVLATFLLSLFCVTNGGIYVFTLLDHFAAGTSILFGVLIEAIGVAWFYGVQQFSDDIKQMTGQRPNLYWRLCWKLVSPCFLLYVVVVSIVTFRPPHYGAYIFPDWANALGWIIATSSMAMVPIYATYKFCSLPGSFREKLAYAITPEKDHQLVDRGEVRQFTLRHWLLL

Norepinephrine transporter, sequence (Q9WTR4 whole entry): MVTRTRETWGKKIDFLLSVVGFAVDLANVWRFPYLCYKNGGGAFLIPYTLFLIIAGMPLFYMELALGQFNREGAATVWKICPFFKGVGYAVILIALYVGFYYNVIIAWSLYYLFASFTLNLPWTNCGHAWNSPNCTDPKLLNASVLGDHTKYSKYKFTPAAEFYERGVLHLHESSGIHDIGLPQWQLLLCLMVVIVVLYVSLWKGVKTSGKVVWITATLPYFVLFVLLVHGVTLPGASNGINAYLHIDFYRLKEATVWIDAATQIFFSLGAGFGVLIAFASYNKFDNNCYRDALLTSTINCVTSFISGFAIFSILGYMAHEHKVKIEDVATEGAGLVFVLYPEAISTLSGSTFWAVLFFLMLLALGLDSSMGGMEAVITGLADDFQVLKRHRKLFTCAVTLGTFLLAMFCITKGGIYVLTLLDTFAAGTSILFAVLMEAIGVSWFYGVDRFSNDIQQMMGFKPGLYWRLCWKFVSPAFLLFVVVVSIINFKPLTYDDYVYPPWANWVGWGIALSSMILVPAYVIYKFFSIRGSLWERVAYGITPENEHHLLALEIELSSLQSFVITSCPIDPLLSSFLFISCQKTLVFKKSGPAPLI
Sodium-dependent serotonin transporter, sequence (P31652 whole entry): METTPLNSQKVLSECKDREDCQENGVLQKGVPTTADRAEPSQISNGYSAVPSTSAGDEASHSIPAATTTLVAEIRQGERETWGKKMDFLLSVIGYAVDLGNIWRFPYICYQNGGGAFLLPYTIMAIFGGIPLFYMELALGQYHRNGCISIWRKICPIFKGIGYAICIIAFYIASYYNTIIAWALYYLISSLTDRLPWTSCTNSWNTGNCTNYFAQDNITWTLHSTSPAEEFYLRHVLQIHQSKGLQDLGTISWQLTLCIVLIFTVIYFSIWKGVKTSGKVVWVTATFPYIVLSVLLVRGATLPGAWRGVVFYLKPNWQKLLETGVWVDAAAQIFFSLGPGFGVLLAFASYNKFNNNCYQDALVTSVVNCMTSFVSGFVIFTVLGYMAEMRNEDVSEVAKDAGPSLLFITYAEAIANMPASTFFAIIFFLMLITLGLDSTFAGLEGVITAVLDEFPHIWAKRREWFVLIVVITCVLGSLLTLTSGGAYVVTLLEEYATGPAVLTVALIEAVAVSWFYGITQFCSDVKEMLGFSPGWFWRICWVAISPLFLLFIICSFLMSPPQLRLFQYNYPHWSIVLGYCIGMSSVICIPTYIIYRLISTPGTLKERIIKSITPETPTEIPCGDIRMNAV

SMILES | Ki [1] [nM] | Ki [2] [nM] | Ki [3] [nM]
COC(=O)C1C2CC[C@H](C[C@@H]1c1ccc(I)cc1)N2CCN1C(=O)c2ccccc2C1=O (stereo partly drawn) | 441 | 0.84 | 4.23
COC(=O)C1C2CC[C@@H](C[C@@H]1c1ccc(I)cc1)N2CCCCN1C(=O)c2ccccc2C1=O (stereo partly drawn) | 190 | 0.21 | 2.38
COC(=O)C1C2CC[C@H](C[C@@H]1c1ccc(I)cc1)N2C (stereo partly drawn) | – | 0.44 | –
COC(=O)C1C2CC[C@H](C[C@@H]1c1ccc(I)cc1)N2CCCCCCCCN1C(=O)c2ccccc2C1=O (stereo partly drawn) | 75 | 0.2 | 2.98
COC(=O)C1C2CC[C@H](C[C@@H]1c1ccc(I)cc1)N2CCCCCN1C(=O)c2ccccc2C1=O (stereo partly drawn) | 60 | 0.34 | 2.4
